Results reported in the supplement of paper PMC10307832.

Key:
Assay in all cases: relative viability (nuclei count vs DMSO), 5 days (fraction); higher = more cells survive
Conditions in all cases: main component drawn
Bleomycin + Trametinib = compound: CC1=C(N=C(N=C1N)[C@H](CC(=O)N)NC[C@@H](C(=O)N)N)C(=O)N[C@@H]([C@H](C2=CN=CN2)OC3C(C(C(C(O3)CO)O)O)OC4C(C(C(C(O4)CO)O)OC(=O)N)O)C(=O)N[C@H](C)[C@H]([C@H](C)C(=O)N[C@@H]([C@@H](C)O)C(=O)NCCC5=NC(=CS5)C6=NC(=CS6)C(=O)NCCC[S+](C)C)O [Bleomycin] + CC(=O)Nc1cccc(-n2c(=O)n(C3CC3)c(=O)c3c(Nc4ccc(I)cc4F)n(C)c(=O)c(C)c32)c1 [Trametinib] (partner 0.02 µM)
Procedure, shortened: (§1)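 Values are medians from duplicate plates. Each reflects relative viability, defined as the nuclei count of treated wells over that of vehicle wells. Lung cancer cell lines in 1536-well plates were pin-tool dosed one day after seeding with one drug alone or with a fixed anchor-drug dose plus five library-drug doses (not always all listed) in √10 steps, then fixed, stained and imaged at 4× after 5 days.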

Bleomycin + Palbociclib = compound: CC1=C(N=C(N=C1N)[C@H](CC(=O)N)NC[C@@H](C(=O)N)N)C(=O)N[C@@H]([C@H](C2=CN=CN2)OC3C(C(C(C(O3)CO)O)O)OC4C(C(C(C(O4)CO)O)OC(=O)N)O)C(=O)N[C@H](C)[C@H]([C@H](C)C(=O)N[C@@H]([C@@H](C)O)C(=O)NCCC5=NC(=CS5)C6=NC(=CS6)C(=O)NCCC[S+](C)C)O [Bleomycin] + CC(=O)c1c(C)c2cnc(Nc3ccc(N4CCNCC4)cn3)nc2n(C2CCCC2)c1=O [Palbociclib] (partner 0.5 µM)
Procedure, shortened: as §1

Bleomycin + Linsitinib = compound: CC1=C(N=C(N=C1N)[C@H](CC(=O)N)NC[C@@H](C(=O)N)N)C(=O)N[C@@H]([C@H](C2=CN=CN2)OC3C(C(C(C(O3)CO)O)O)OC4C(C(C(C(O4)CO)O)OC(=O)N)O)C(=O)N[C@H](C)[C@H]([C@H](C)C(=O)N[C@@H]([C@@H](C)O)C(=O)NCCC5=NC(=CS5)C6=NC(=CS6)C(=O)NCCC[S+](C)C)O [Bleomycin] + C[C@]1(O)C[C@@H](c2nc(-c3ccc4ccc(-c5ccccc5)nc4c3)c3c(N)nccn32)C1 [Linsitinib] (partner 1 µM)
Procedure, shortened: as §1

Bleomycin + Navitoclax = compound: CC1=C(N=C(N=C1N)[C@H](CC(=O)N)NC[C@@H](C(=O)N)N)C(=O)N[C@@H]([C@H](C2=CN=CN2)OC3C(C(C(C(O3)CO)O)O)OC4C(C(C(C(O4)CO)O)OC(=O)N)O)C(=O)N[C@H](C)[C@H]([C@H](C)C(=O)N[C@@H]([C@@H](C)O)C(=O)NCCC5=NC(=CS5)C6=NC(=CS6)C(=O)NCCC[S+](C)C)O [Bleomycin] + CC1(C)CCC(c2ccc(Cl)cc2)=C(CN2CCN(c3ccc(C(=O)NS(=O)(=O)c4ccc(N[C@H](CCN5CCOCC5)CSc5ccccc5)c(S(=O)(=O)C(F)(F)F)c4)cc3)CC2)C1 [Navitoclax] (partner 0.5 µM)
Procedure, shortened: as §1

Cell Line | relative viability (Bleomycin + Trametinib; first compound 0.01 µM) | relative viability (Bleomycin + Trametinib; first compound 0.03162 µM) | relative viability (Bleomycin + Trametinib; first compound 0.1 µM) | relative viability (Bleomycin + Trametinib; first compound 0.3162 µM) | relative viability (Bleomycin + Trametinib; first compound 1 µM) | relative viability (Bleomycin + Palbociclib; first compound 0.01 µM) | relative viability (Bleomycin + Palbociclib; first compound 0.03162 µM) | relative viability (Bleomycin + Palbociclib; first compound 0.1 µM) | relative viability (Bleomycin + Palbociclib; first compound 0.3162 µM) | relative viability (Bleomycin + Palbociclib; first compound 1 µM) | relative viability (Bleomycin + Linsitinib; first compound 0.01 µM) | relative viability (Bleomycin + Linsitinib; first compound 0.03162 µM) | relative viability (Bleomycin + Linsitinib; first compound 0.1 µM) | relative viability (Bleomycin + Linsitinib; first compound 0.3162 µM) | relative viability (Bleomycin + Linsitinib; first compound 1 µM) | relative viability (Bleomycin + Navitoclax; first compound 0.01 µM) | relative viability (Bleomycin + Navitoclax; first compound 0.03162 µM) | relative viability (Bleomycin + Navitoclax; first compound 0.1 µM) | relative viability (Bleomycin + Navitoclax; first compound 0.3162 µM) | relative viability (Bleomycin + Navitoclax; first compound 1 µM)
NCI-H2023 | 0.277 | 0.383 | 0.363 | 0.148 | 0.129 | 0.333 | 0.302 | 0.25 | 0.125 | 0.13 | 0.543 | 0.465 | 0.321 | 0.143 | 0.106 | 0.723 | 0.72 | 0.519 | 0.244 | 0.148
LC-2-ad | 0.736 | 0.674 | 0.541 | 0.291 | 0.243 | 0.454 | 0.541 | 0.421 | 0.3 | 0.31 | 0.725 | 0.691 | 0.352 | 0.178 | 0.118 | 0.333 | 0.364 | 0.24 | 0.123 | 0.13
NCI-H1703 |  |  |  |  |  |  |  |  |  |  | 1.06 | 0.639 | 0.517 | 0.321 | 0.19 | 1.05 | 1.11 | 0.531 | 0.278 | 0.203
NCI-H1437 | 0.475 | 0.411 | 0.678 | 0.439 | 0.276 | 0.306 | 0.224 | 0.293 | 0.256 | 0.221 | 0.88 | 0.936 | 0.85 | 0.417 | 0.357 | 0.952 | 1.07 | 0.978 | 0.667 | 0.491
SW 1573 | 0.47 | 0.424 | 0.322 | 0.191 | 0.141 | 0.277 | 0.3 | 0.265 | 0.144 | 0.167 | 0.705 | 0.567 | 0.417 | 0.311 | 0.176 | 0.652 | 0.571 | 0.515 | 0.201 | 0.104
Calu-6 |  |  |  |  |  |  |  |  |  |  | 0.741 | 0.6 | 0.508 | 0.174 | 0.125 | 0.459 | 0.336 | 0.207 | 0.114 | 0.0817
NCI-H1650 | 0.325 | 0.257 | 0.244 | 0.138 | 0.135 | 0.215 | 0.222 | 0.153 | 0.176 | 0.191 |  |  |  |  |  | 0.394 | 0.429 | 0.212 | 0.148 | 0.211
NCI-H650 | 0.909 | 0.993 | 0.8 | 0.352 | 0.18 | 0.282 | 0.34 | 0.307 | 0.255 | 0.2 | 0.585 | 0.791 | 0.582 | 0.328 | 0.199 |  |  |  |  | 
EBC-1 |  |  |  |  |  |  |  |  |  |  | 0.829 | 0.72 | 0.78 | 0.698 | 0.366 | 0.392 | 0.527 | 0.379 | 0.274 | 0.269
NCI-H2342 | 0.896 | 0.737 | 0.758 | 0.577 | 0.576 | 0.553 | 0.546 | 0.519 | 0.488 | 0.433 |  |  |  |  |  |  |  |  |  | 
SW 900 | 0.858 | 0.561 | 0.453 | 0.259 | 0.197 | 0.502 | 0.503 | 0.355 | 0.214 | 0.222 |  |  |  |  |  |  |  |  |  | 
NCI-H1563 |  |  |  |  |  |  |  |  |  |  | 0.919 | 0.891 | 0.749 | 0.642 | 0.623 |  |  |  |  | 
NCI-H1299 |  |  |  |  |  |  |  |  |  |  | 0.879 | 0.978 | 0.854 | 0.481 | 0.245 | 0.977 | 1.01 | 0.922 | 0.396 | 0.376
NCI-H358 | 0.138 | 0.138 | 0.127 | 0.138 | 0.108 | 0.142 | 0.178 | 0.115 | 0.133 | 0.111 | 0.674 | 0.738 | 0.666 | 0.455 | 0.39 |  |  |  |  | 
NCI-H661 | 0.546 | 0.484 | 0.477 | 0.392 | 0.292 | 0.39 | 0.398 | 0.354 | 0.335 | 0.312 | 0.563 | 0.423 | 0.312 | 0.221 | 0.217 |  |  |  |  | 
NCI-H522 | 0.776 | 0.705 | 0.763 | 0.433 | 0.379 | 0.904 | 0.829 | 0.76 | 0.386 | 0.4 |  |  |  |  |  |  |  |  |  | 
A549 |  |  |  |  |  |  |  |  |  |  | 0.514 | 0.472 | 0.384 | 0.0789 | 0.0779 | 0.933 | 0.827 | 0.54 | 0.127 | 0.0446
NCI-H1648 | 0.388 | 0.4 | 0.416 | 0.269 | 0.295 | 0.217 | 0.32 | 0.27 | 0.27 | 0.245 |  |  |  |  |  |  |  |  |  | 
IA-LM |  |  |  |  |  |  |  |  |  |  | 0.588 | 0.476 | 0.344 | 0.293 | 0.246 | 0.498 | 0.673 | 0.611 | 0.28 | 0.205
ChaGo-K-1 | 0.775 | 0.744 | 0.704 | 0.547 | 0.366 | 0.847 | 0.831 | 0.862 | 0.512 | 0.386 |  |  |  |  |  |  | 0.914 | 0.724 | 0.386 | 0.307
NCI-H596 | 0.674 | 0.562 | 0.423 | 0.38 | 0.379 |  |  |  |  |  | 0.79 | 0.73 | 0.554 | 0.442 | 0.43 | 0.648 | 0.534 | 0.312 | 0.276 | 0.305
ABC-1 |  |  |  |  |  | 0.467 | 0.822 | 0.789 | 0.512 | 0.433 | 0.938 | 0.647 | 0.63 | 0.355 | 0.248 |  |  |  |  | 
